# Experimental data reported in patent publication US20100196464A1, “ORLISTAT PHARMACEUTICAL FORMULATIONS” (DR. REDDY'S LABORATORIES LIMITED, priority 2007, published 2010).
# Experiments:
# [1] = Particle size distribution; type: physicochemical
# From the text: The term “average particle size” refers to particle sizes represented by D(0.5), wherein 50% of particles in a powder have sizes greater than, and 50% of particles have sizes less than, a specified value.
# Various parameters impacting the preparation of solid oral dosage forms include the physical properties of active ingredients as well as those of the final blends of active ingredients with excipients, wherein the physical properties include flow properties, particle sizes (such as determined by sieve analyzers, electrical conductance instruments such as a Coulter counter, and laser light diffraction particle size analyzers such as the instruments available from Malvern Instruments, Ltd., Malvern, Worcestershire, United Kingdom), bulk densities and tapped densities, compressibility indexes, Hausner ratios (determined by USP density apparatus), flow properties (such as determined by Flowdex apparatus), etc.
# The percent of particles with different dimensions that exist in a powder is called the particle size distribution. It is represented in certain ways. Particle size is the maximum dimension of a particle, normally expressed in units of μm. Particle size distributions can be expressed in terms of D(0.1), D(0.5), D(0.9) and D [4,3]. The D(0.1), D(0.5) and D(0.9) represent the 10th, median or the 50th percentile, and the 90th percentile of the particle size distribution, respectively. They can be expressed as volume, weight, or surface percentages. For example when measured by volume, D(0.1), D(0.5), D(0.9) is a value of the distribution such that 10%, 50%, 90% by volume of the particles have a size of this value or less, or is the percentage of particles smaller than that size. D(0.5) is also known as median diameter of particle. It is one of the important parameters representing characteristics of particle of powder. For a sample, if D(0.5)=5 μm, it means that 50% of the particles are smaller than 5 μm. Similarly, if D(0.1)=5 μm, 10% by volume of the particles are less than or equal to 5 μm, and if D(0.9)=5 μm, 90% of the particles are less than or equal to 5 μm. D[4,3] is the volume moment mean of the particles or the volume weighted particle size.
# [2] = physiological pH range; cited from earlier work
# [3] = Bulk density and tapped density; type: physicochemical; conditions: orlistat used in the formulation of Example 6
# From the text: Other important physicochemical characteristics of powders are the density properties such as bulk and tapped density, weight variation and flow properties such as angle of repose. Bulk density is the undisturbed packing density of that substance and tapped bulk density relates to the packing density after tapping a bed of substance until no change in the packing density is seen. Bulk density and tapped density, can be determined using compendial bulk density apparatus, such as the method given in Test 616 “Bulk Density and Tapped Density,” United States Pharmacopeia 29, United States Pharmacopeial Convention, Inc., Rockville, Md., 2005 (“USP”). Weight variation can be determined using the method given in United States Pharmacopeia 29.
# [4] = cited from earlier work
# [5] = orlistat used in the formulation of Example 1
# [6] = orlistat used in the formulation of Example 6
smiles,measurement,setting,value
"CCCCCCCCCCC[C@@H](C[C@@H]1OC(=O)[C@H]1CCCCCC)OC(=O)[C@H](CC(C)C)NC=O [Orlistat, (S)-1-[[(2S,3S)-3-hexyl-4-oxo-2-oxetanyl]methyl]-dodecyl ester]",D(0.1),[1]; [5],1.8 μm
same,D(0.5),[1]; [5],8.6 μm
same,D(0.9),[1]; [5],24.5 μm
same,D(0.1),[1]; [6],18.7 μm
same,D(0.5),[1]; [6],84.2 μm
same,D(0.9),[1]; [6],171.8 μm
same,pKa,[2],no pKa within the physiological pH range
same,Bulk density,[3],0.424 g/mL
same,Tapped density,[3],0.571 g/mL
same,Solubility in chloroform,[4]; chloroform,freely soluble
same,Solubility in ethanol,[4]; ethanol,very soluble
same,Solubility in methanol,[4]; methanol,very soluble
same,Solubility in water,[4]; water,practically insoluble
